Data as given in patent publication US20230085307A1, “PYRIDAZINONE COMPOUND AND HERBICIDE” (NISSAN CHEMICAL CORPORATION, priority 2019, published 2023).

Columns and labels:
windgrass [1] = test: Test Example 4: herbicidal effect by soil treatment (Table 19, symbol L); format: in vivo, windgrass (Apera spica-venti)
Procedure, shortened: (§1)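 Step 1: sow seeds in sterilized diluvial soil, cover ~1.5 cm. Step 2: spray diluted emulsion onto soil surface at predetermined rate. Step 3: greenhouse, 25–30° C, three weeks. Step 4: grade effect on each plant by earlier criteria.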

late watergrass [2] = test: Test Example 1: herbicidal activity, application before weed generation under submerged conditions (Table 16, symbol A); format: in vivo, late watergrass (Echinochloa oryzicola); conditions: 320 g/ha applied herbicide
Procedure, shortened: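 Submerged Wagner pots (alluvial soil, 4 cm water) sown with weed seeds and planted with 2.5-leaf rice seedlings; emulsifiable concentrate diluted in water applied to water surface on sowing day. Held in greenhouse at 25-30 °C; injury scored 0-5 by herbicidal rate after three weeks.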

Italian ryegrass [3] = test: Test Example 5: herbicidal effect by foliage application, plastic box (Table 20, symbol K); format: in vivo, Italian ryegrass (Lolium multiflorum); conditions: foliage application
Procedure, shortened: (§2)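 Foliar spray test: emulsion formulation diluted in water to a set application rate, sprayed onto 14-day-old plants raised in diluvial soil at 25° C to 30° C under glass. Both herbicidal effect and crop effect rated visually three weeks later.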

Japanese bulrush = test: Test Example 2: herbicidal activity, application during weed generation under submerged conditions (Table 17, symbol B); format: in vivo, Japanese bulrush (Schoenoplectus juncoides); conditions: AAH 320 g/ha; application during weed generation, submerged conditions
Procedure, shortened: (§3)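 Alluvial soil in Wagner pots was flooded to 4 cm depth and sown with the three weeds together; pots were kept in a greenhouse at 25° C. to 30° C. At the one to two leaf stage, an emulsion formulation diluted in water to a set rate went onto the water surface; scored three weeks later.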

lambsquarters [4] = test: Test Example 5: herbicidal effect by foliage application, plastic box (Table 20, symbol O); format: in vivo, lambsquarters (Chenopodium album); conditions: foliage application
Procedure, shortened: as §2

persian speedwell [5] = test: Test Example 4: herbicidal effect by soil treatment (Table 19, symbol R); format: in vivo, Persian speedwell (Veronica persica)
Procedure, shortened: as §1

velvetleaf = test: Test Example 4: herbicidal effect by soil treatment (Table 19, symbol M); format: in vivo, velvetleaf (Abutilon theophrasti)
Procedure, shortened: as §1

late watergrass [6] = test: Test Example 2: herbicidal activity, application during weed generation under submerged conditions (Table 17, symbol A); format: in vivo, late watergrass (Echinochloa oryzicola); conditions: AAH 320 g/ha; application during weed generation, submerged conditions
Procedure, shortened: as §3

barnyard grass = test: Test Example 3: herbicidal effect by foliage application, Wagner pot (Table 18, symbol H); format: in vivo, barnyard grass (Echinochloa crus-galli); conditions: for herbicidal effect on H (barnyard grass), rating 0-5: 320 g/ha
Procedure, shortened: (§4)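 Plants were sown in alluvial soil held under 0.1–0.5 cm standing water and grown 14 days in a greenhouse at 25–30 °C. An emulsifiable formulation, water-diluted to the set dose, was then sprayed onto the foliage, and effects were scored three weeks later using previously defined criteria.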

persian speedwell [7] = test: Test Example 5: herbicidal effect by foliage application, plastic box (Table 20, symbol R); format: in vivo, Persian speedwell (Veronica persica); conditions: foliage application
Procedure, shortened: as §2

southern crabgrass [8] = test: Test Example 4: herbicidal effect by soil treatment (Table 19, symbol F); format: in vivo, southern crabgrass (Digitaria ciliaris)
Procedure, shortened: as §1

Chinese sprangletop = test: Test Example 3: herbicidal effect by foliage application, Wagner pot (Table 18, symbol D); format: in vivo, chinese sprangletop (Leptochloa chinensis); conditions: for herbicidal effect on D (Chinese sprangletop), rating 0-5: 320 g/ha
Procedure, shortened: as §4

blackgrass = test: Test Example 4: herbicidal effect by soil treatment (Table 19, symbol J); format: in vivo, blackgrass (Alopecurus myosuroides)
Procedure, shortened: as §1

lambsquarters [9] = test: Test Example 4: herbicidal effect by soil treatment (Table 19, symbol O); format: in vivo, lambsquarters (Chenopodium album)
Procedure, shortened: as §1

southern crabgrass [10] = test: Test Example 5: herbicidal effect by foliage application, plastic box (Table 20, symbol F); format: in vivo, southern crabgrass (Digitaria ciliaris); conditions: foliage application
Procedure, shortened: as §2

Italian ryegrass [11] = test: Test Example 4: herbicidal effect by soil treatment (Table 19, symbol K); format: in vivo, Italian ryegrass (Lolium multiflorum)
Procedure, shortened: as §1

windgrass [12] = test: Test Example 5: herbicidal effect by foliage application, plastic box (Table 20, symbol L); format: in vivo, windgrass (Apera spica-venti); conditions: foliage application
Procedure, shortened: as §2

[13] = 320 g/ha, 3 weeks after application
[14] = AAH 320 g/ha, three weeks after application
[15] = amount of applied herbicide 320 g/ha
[16] = 320 g/ha, evaluated three weeks after application
[17] = AAH 320 g/ha, evaluated three weeks after application

Cc1nn(C)c(=O)c(-c2c(-c3ccc(F)cc3)sc3ccc(F)cc23)c1O [2-001]
L: windgrass, herbicidal effect rating (windgrass [1]; AAH 320 g/ha): 0 (Herbicidal rate of 5% or less (almost no effect)) | Herbicidal effect on A: late watergrass (grade 0-5) (late watergrass [2]): 2 (Herbicidal rate of 20% or more and less than 40%) | effect on Italian ryegrass (K) (Italian ryegrass [3]; [13]): 5 (Herbicidal rate of 90% or more (almost completely withered)) | herbicidal effect rating, B: Japanese bulrush (Japanese bulrush): 2 (Herbicidal rate of 20% or more and less than 40%) | effect on lambsquarters (O) (lambsquarters [4]; [13]): 5 (Herbicidal rate of 90% or more (almost completely withered)) | R: persian speedwell, herbicidal effect rating (persian speedwell [5]; AAH 320 g/ha): 5 (Herbicidal rate of 90% or more (almost completely withered)) | M: velvetleaf, herbicidal effect rating (velvetleaf; AAH 320 g/ha): 5 (Herbicidal rate of 90% or more (almost completely withered)) | herbicidal effect rating, A: late watergrass (late watergrass [6]): 1 (Herbicidal rate of 5% or more and less than 20%) | herbicidal effect on H (barnyard grass), rating 0-5 (barnyard grass): 5 (Herbicidal rate of 90% or more (almost completely withered)) | effect on persian speedwell (R) (persian speedwell [7]; [13]): 5 (Herbicidal rate of 90% or more (almost completely withered)) | F: southern crabgrass, herbicidal effect rating (southern crabgrass [8]; AAH 320 g/ha): 5 (Herbicidal rate of 90% or more (almost completely withered)) | herbicidal effect on D (Chinese sprangletop), rating 0-5 (Chinese sprangletop): 5 (Herbicidal rate of 90% or more (almost completely withered)) | J: blackgrass, herbicidal effect rating (blackgrass; AAH 320 g/ha): 2 (Herbicidal rate of 20% or more and less than 40%) | O: lambsquarters, herbicidal effect rating (lambsquarters [9]; AAH 320 g/ha): 5 (Herbicidal rate of 90% or more (almost completely withered)) | effect on southern crabgrass (F) (southern crabgrass [10]; [13]): 5 (Herbicidal rate of 90% or more (almost completely withered)) | K: Italian ryegrass, herbicidal effect rating (Italian ryegrass [11]; AAH 320 g/ha): 4 (Herbicidal rate of 70% or more and less than 90%) | effect on windgrass (L) (windgrass [12]; [13]): 4 (Herbicidal rate of 70% or more and less than 90%)

CCCC(=O)Oc1c(C)nn(C)c(=O)c1-c1c(-c2ccc([N+](=O)[O-])cc2)sc2ccccc12 [1-152]
L: windgrass, herbicidal effect rating (windgrass [1]; AAH 320 g/ha): 0 (Herbicidal rate of 5% or less (almost no effect)) | Herbicidal effect on A: late watergrass (grade 0-5) (late watergrass [2]): 4 (Herbicidal rate of 70% or more and less than 90%) | K: Italian ryegrass, herbicidal effect (Italian ryegrass [3]; [14]): 4 (Herbicidal rate of 70% or more and less than 90%) | herbicidal effect rating, B: Japanese bulrush (Japanese bulrush): 3 (Herbicidal rate of 40% or more and less than 70%) | O: lambsquarters, herbicidal effect (lambsquarters [4]; [14]): 4 (Herbicidal rate of 70% or more and less than 90%) | R: persian speedwell, herbicidal effect rating (persian speedwell [5]; AAH 320 g/ha): 3 (Herbicidal rate of 40% or more and less than 70%) | M: velvetleaf, herbicidal effect rating (velvetleaf; AAH 320 g/ha): 0 (Herbicidal rate of 5% or less (almost no effect)) | herbicidal effect rating, A: late watergrass (late watergrass [6]): 3 (Herbicidal rate of 40% or more and less than 70%) | herbicidal effect on H (barnyard grass), rating 0-5 (barnyard grass): 5 (Herbicidal rate of 90% or more (almost completely withered)) | R: persian speedwell, herbicidal effect (persian speedwell [7]; [14]): 5 (Herbicidal rate of 90% or more (almost completely withered)) | F: southern crabgrass, herbicidal effect rating (southern crabgrass [8]; AAH 320 g/ha): 1 (Herbicidal rate of 5% or more and less than 20%) | herbicidal effect on D (Chinese sprangletop), rating 0-5 (Chinese sprangletop): 5 (Herbicidal rate of 90% or more (almost completely withered)) | J: blackgrass, herbicidal effect rating (blackgrass; AAH 320 g/ha): 0 (Herbicidal rate of 5% or less (almost no effect)) | O: lambsquarters, herbicidal effect rating (lambsquarters [9]; AAH 320 g/ha): 0 (Herbicidal rate of 5% or less (almost no effect)) | F: southern crabgrass, herbicidal effect (southern crabgrass [10]; [14]): 4 (Herbicidal rate of 70% or more and less than 90%) | K: Italian ryegrass, herbicidal effect rating (Italian ryegrass [11]; AAH 320 g/ha): 0 (Herbicidal rate of 5% or less (almost no effect)) | L: windgrass, herbicidal effect (windgrass [12]; [14]): 0 (Herbicidal rate of 5% or less (almost no effect))

COc1ccccc1-c1sc2ccc(Cl)cc2c1-c1c(O)c(C)nn(C)c1=O [2-101]
L: windgrass, herbicidal effect rating (windgrass [1]; [15]): 0 (Herbicidal rate of 5% or less (almost no effect)) | Herbicidal effect on A: late watergrass (grade 0-5) (late watergrass [2]): 0 (Herbicidal rate of 5% or less (almost no effect)) | herbicidal effect on K: Italian ryegrass (Italian ryegrass [3]; [16]): 4 (Herbicidal rate of 70% or more and less than 90%) | herbicidal effect rating, B: Japanese bulrush (Japanese bulrush): 3 (Herbicidal rate of 40% or more and less than 70%) | herbicidal effect on O: lambsquarters (lambsquarters [4]; [16]): 5 (Herbicidal rate of 90% or more (almost completely withered)) | R: persian speedwell, herbicidal effect rating (persian speedwell [5]; [15]): 4 (Herbicidal rate of 70% or more and less than 90%) | M: velvetleaf, herbicidal effect rating (velvetleaf; [15]): 3 (Herbicidal rate of 40% or more and less than 70%) | herbicidal effect rating, A: late watergrass (late watergrass [6]): 0 (Herbicidal rate of 5% or less (almost no effect)) | herbicidal effect on H (barnyard grass), rating 0-5 (barnyard grass): 4 (Herbicidal rate of 70% or more and less than 90%) | herbicidal effect on R: persian speedwell (persian speedwell [7]; [16]): 5 (Herbicidal rate of 90% or more (almost completely withered)) | F: southern crabgrass, herbicidal effect rating (southern crabgrass [8]; [15]): 3 (Herbicidal rate of 40% or more and less than 70%) | herbicidal effect on D (Chinese sprangletop), rating 0-5 (Chinese sprangletop): 0 (Herbicidal rate of 5% or less (almost no effect)) | J: blackgrass, herbicidal effect rating (blackgrass; [15]): 1 (Herbicidal rate of 5% or more and less than 20%) | O: lambsquarters, herbicidal effect rating (lambsquarters [9]; [15]): 4 (Herbicidal rate of 70% or more and less than 90%) | herbicidal effect on F: southern crabgrass (southern crabgrass [10]; [16]): 2 (Herbicidal rate of 20% or more and less than 40%) | K: Italian ryegrass, herbicidal effect rating (Italian ryegrass [11]; [15]): 3 (Herbicidal rate of 40% or more and less than 70%) | herbicidal effect on L: windgrass (windgrass [12]; [16]): 4 (Herbicidal rate of 70% or more and less than 90%)

Cc1nn(C)c(=O)c(-c2c(-c3ccc(CSCC(F)(F)F)cc3)sc3ccc(F)cc23)c1O [2-331]
herbicidal effect on L: windgrass (windgrass [1]; [15]): 0 (Herbicidal rate of 5% or less (almost no effect)) | Herbicidal effect on A: late watergrass (grade 0-5) (late watergrass [2]): 3 (Herbicidal rate of 40% or more and less than 70%) | K: Italian ryegrass, herbicidal effect (criteria 0-5) (Italian ryegrass [3]; [17]): 4 (Herbicidal rate of 70% or more and less than 90%) | herbicidal effect rating, B: Japanese bulrush (Japanese bulrush): 0 (Herbicidal rate of 5% or less (almost no effect)) | O: lambsquarters, herbicidal effect (criteria 0-5) (lambsquarters [4]; [17]): 5 (Herbicidal rate of 90% or more (almost completely withered)) | herbicidal effect on R: persian speedwell (persian speedwell [5]; [15]): 4 (Herbicidal rate of 70% or more and less than 90%) | herbicidal effect on M: velvetleaf (velvetleaf; [15]): 2 (Herbicidal rate of 20% or more and less than 40%) | herbicidal effect rating, A: late watergrass (late watergrass [6]): 3 (Herbicidal rate of 40% or more and less than 70%) | herbicidal effect on H: barnyard grass (barnyard grass; [15]): 5 (Herbicidal rate of 90% or more (almost completely withered)) | R: persian speedwell, herbicidal effect (criteria 0-5) (persian speedwell [7]; [17]): 5 (Herbicidal rate of 90% or more (almost completely withered)) | herbicidal effect on F: southern crabgrass (southern crabgrass [8]; [15]): 3 (Herbicidal rate of 40% or more and less than 70%) | herbicidal effect on D: Chinese sprangletop (Chinese sprangletop; [15]): 0 (Herbicidal rate of 5% or less (almost no effect)) | herbicidal effect on J: blackgrass (blackgrass; [15]): 0 (Herbicidal rate of 5% or less (almost no effect)) | herbicidal effect on O: lambsquarters (lambsquarters [9]; [15]): 4 (Herbicidal rate of 70% or more and less than 90%) | F: southern crabgrass, herbicidal effect (criteria 0-5) (southern crabgrass [10]; [17]): 5 (Herbicidal rate of 90% or more (almost completely withered)) | herbicidal effect on K: Italian ryegrass (Italian ryegrass [11]; [15]): 5 (Herbicidal rate of 90% or more (almost completely withered)) | L: windgrass, herbicidal effect (criteria 0-5) (windgrass [12]; [17]): 4 (Herbicidal rate of 70% or more and less than 90%)
